Results reported in patent US9067930B2, “2-oxo-piperidinyl derivatives” (UCB Pharma, S.A., priority 2011, dated 2015).

How the values were obtained:
[1] = test system: CGRP release; conditions: after electrical stimulation of the trigeminal ganglion; cited from earlier work
[2] = test system: human coronary artery
[3] = test system: dural protein extravasation induced by electrical stimulation of the trigeminal ganglion; experiment: Plasma protein extravasation (PPE) / dural extravasation model of migraine; type: in vivo; conditions: rat
From the text: 5-HT7 antagonists are expected to have efficacy in the prophylactic (and potentially acute) treatment of migraine by: • 1) Preventing serotonin-induced vasodilatation of cranial blood vessels (Matthys, A., et al., Role of the 5-HT7 receptor in the central nervous system: from current status to future perspectives. Molecular Neurobiology, 2011; Leopoldo, M., et al., Serotonin 5-HT7 receptor agents: Structure-activity relationships and potential therapeutic applications in central nervous system disorders. Pharmacology & Therapeutics, 2011, 129, 120-148; Hedlund, P. B., The 5-HT7 receptor and disorders of the nervous system: an overview. Psychopharmacology, 2009, 206, 345-354). Contrary to the triptans, 5-HT7 antagonists would only reverse a pre-existing vasodilatation, without producing vasoconstriction by themselves. This would make 5-HT7 antagonists, in contrast to triptans, compatible with chronic use and therefore with prophylactic treatment. • 2) By inhibiting peripheral and central sensitization. […] In this rat model of migraine, dural protein extravasation is induced by electrical stimulation of the trigeminal ganglion. […]
The level of fluorescence in dura maters ipsi- and contra-lateral to the trigeminal ganglia stimulation is quantified with a digital camera (Hamamatsu C4742-98 filter for FITC objective Nikon 2.8×) and analysis software (WIT5.3, Logical vision).

## CC1CCN(CC[C@H]2CCCN2S(=O)(=O)c2cccc(O)c2)CC1 [SB-269970]
[1]
  release of CGRP: inhibits the release of CGRP
[2]
  human coronary artery contraction: does not induce human coronary artery contraction
[3]
  inhibition of neurogenic inflammation / reduction of protein extravasation: Inhibition of neurogenic inflammation
